Target: T1, Vasopressin V2 (Rattus norvegicus, UniProt Q00788)
T1 construct: Vasopressin V2 Agonist Effects of Test Compounds in Normal Conscious Water-loaded Rats; from tissue; host or cells: whole animal: conscious water-loaded Sprague-Dawley rats (V2 receptors of the kidney collecting ducts)
Test: Vasopressin V2 agonist effects of test compounds in normal conscious water-loaded rats
Format: in vivo
Conditions: oral dose of 10 mg/Kg, water-loaded Sprague-Dawley (CD) rats; for Changes in Urinary Osmolality: osmolality changes expressed as percent of control, urine collected for four hours; for Urine Volume (% decrease): percent decrease in urine volume vs. control, urine collected for four hours after dosing
Description: Vasopressin V2 Agonist Effects of Test Compounds in Normal Conscious Water-loaded Rats:
Male or female normotensive Sprague-Dawley rats (Charles River Laboratories, Inc., Kingston, N.Y.) of 350-500 g body weight were supplied with standard rodent diet (Purina Rodent Lab. Chow 5001) and water ad libitum. On the day of test, rats were placed individually into metabolic cages equipped with devices to separate the feces from the urine and containers for collection of urine. A test compound or a reference agent was given at an oral dose of 10 mg/Kg in a volume of 10 mL/Kg. The vehicle used was 20% dimethylsulfoxide (DMSO) in 2.5% preboiled corn starch. Thirty minutes after dosing the test compound, rats were gavaged with water at 30 mL/Kg into the stomach using a feeding needle. During the test, rats were not provided with water or food. Urine was collected for four hours after dosing of the test compound. At the end of four hours, urine volume was measured. Urinary osmolality was determined using a Fiske One-Ten Osmometer (Fiske Associates, Norwood, Mass., 02062) or an Advanced CRYOMATIC Osmometer, Model 3C2 (Advanced Instruments, Norwood, Mass.). Determinations of Na^+, K^+ and Cl^− ion were carried out using ion specific electrodes in a Beckman SYNCHRON EL-ISE Electrolyte System analyzer. The urinary osmolality should increase proportionally. In the screening test, two rats were used for each compound. If the difference in the urine volume of the two rats was greater than 50%, a third rat was used.

T1 sequence (Q00788 whole entry): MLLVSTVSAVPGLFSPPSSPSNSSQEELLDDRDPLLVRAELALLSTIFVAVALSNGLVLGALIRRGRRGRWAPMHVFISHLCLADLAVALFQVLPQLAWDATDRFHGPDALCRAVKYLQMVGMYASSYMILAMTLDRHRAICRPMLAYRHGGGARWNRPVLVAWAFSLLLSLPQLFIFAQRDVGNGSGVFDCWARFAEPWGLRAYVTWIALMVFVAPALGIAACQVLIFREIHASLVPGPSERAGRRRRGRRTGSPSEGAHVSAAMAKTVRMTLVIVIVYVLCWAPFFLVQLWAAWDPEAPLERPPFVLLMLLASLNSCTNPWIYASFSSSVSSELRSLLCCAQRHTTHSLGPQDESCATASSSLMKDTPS

Row | Structure (SMILES) | Changes in Urinary Osmolality | Urine Volume (% decrease)
1 | Cn1ccc2cc(C(=O)N3Cc4cccnc4Nc4ccccc43)ccc21 [Example 1] | 159% of control | 74
2 | O=C(c1ccc2c(c1)OCO2)N1Cc2cccnc2Nc2ccccc21 [Example 2, Benzo [1,3]Dioxol-5-yl-(5,11-dihydro-benzo[b]pyrido [2.3-e][1,4]Diazepin-6-yl)-mothanone] | 247% of control | 61
3 | O=C(c1ccc2c(c1)CCO2)N1Cc2cccnc2Nc2ccccc21 [Example 3, (5,11-Dihydro-benzo[b]pyrido [2.3-e][1,4]Diazepin-6-yl)-(2,3-dihydro-benzofuran-5-yl)-methanone] | 54% of control | 29
4 | O=C(c1ccc2nonc2c1)N1Cc2cccnc2Nc2ccccc21 [Example 4, Benzo[1,2,5]oxadiazol-5-yl-(5,11-dihydro-benzo[b]pyrido [2.3-e][1,4]Diazepin-6-yl)-methanone] |  | 13
5 | O=C(c1ccc2ncsc2c1)N1Cc2cccnc2Nc2ccccc21 [Example 5] | 78% of control | 31
6 | Cn1ccc2cc(C(=O)N3Cc4cccnc4Oc4ccccc43)ccc21 [Example 6] | 35% of control | 21

— patent publication US6620807B1, “Pyridobenzodiazepine and pyridobenzoxazepine carboxyamide vasopressin agonists” (Wyeth, priority 1999, dated 2003)
